21 compounds from patent publication US11339165B2, “Pyrazolopyrimidines having activity against the respiratory syncytial virus (RSV)” (priority 2017, dated 2022) can be followed below.

One data set deals with rgRSV224 virus. Put plainly: Antiviral activity: rgRSV224 (GFP) replication in HeLa cells. As to conditions: human respiratory syncytial virus, HeLa, 72 h, read-out: RSV HELA EC50 (μM), rgRSV224 virus (MOI=1), HeLa cells, GFP expression three days post-virus exposure. The class given is cell-based, respiratory syncytial virus (RSV).
Another data set in a line: in vitro. As to conditions: human, TOX HELA CC50 (μM).

Molecules are shown by their SMILES.

Description for in vitro: Black 384-well clear-bottom microtiter plates (Corning, Amsterdam, The Netherlands) were filled via acoustic drop ejection using the echo liquid handler (Labcyte, Sunnyvale, Calif.). 200 nL of compound stock solutions (100% DMSO) were transferred to the assay plates. 9 serial 4-fold dilutions of compound were made, creating per quadrant the same compound concentration. The assay was initiated by adding 10 μL of culture medium to each well (RPMI medium without phenol red, 10% FBS-heat inactivated, 0.04% gentamycin (50 mg/mL). All addition steps are done by using a multidrop dispenser (Thermo Scientific, Erembodegem, Belgium). Next, rgRSV224 virus (MOI=1) diluted in culture medium was added to the plates. rgRSV224 virus is an engineered virus that includes an additional GFP gene (Hallak L K, Spillmann D, Collins P L, Peeples M E. Glycosaminoglycan sulfation requirements for respiratory syncytial virus infection; Journal of virology (2000), 74(22), 10508-13) and was in-licensed from the NIH (Bethesda, Md., USA). Finally, 20 μL of a HeLa cell suspension (3,000 cells/well) were plated. Medium, virus- and mock-infected controls were included in each test. The wells contain 0.05% DMSO per volume. Cells were incubated at 37° C. in a 5% CO2 atmosphere. Three days post-virus exposure, viral replication was quantified by measuring GFP expression in the cells by an in house developed MSM laser microscope (Tibotec, Beerse, Belgium). The EC50 was defined as the 50% inhibitory concentration for GFP expression. In parallel, compounds were incubated for three days in a set of white 384-well microtiter plates (Corning) and the cytotoxicity of compounds in HeLa cells was determined by measuring the ATP content of the cells using the ATPlite kit (Perkin Elmer, Zaventem, Belgium) according to the manufacturer's instructions. The CC50 was defined as the 50% concentration for cytotoxicity.

As a reminder, the EC50 is the concentration giving half of the maximal effect. The CC50 is the concentration giving 50% cytotoxicity. A low value points to harm at low concentration. `C[C@@H]1c2ccccc2CCN1C(=O)c1cc(C2CC2)n2nc(-c3ccc(N4C[C@@H](O)[C@@H](F)C4)cc3F)cc2n1` (relative stereo) [Compound 107, (7-cyclopropyl-2-(2-fluoro-4-(cis-3-fluoro-4-hydroxypyrrolidin-1-yl)phenyl)pyrazolo[1,5-a]pyrimidin-5-yl)((R)-1-methyl-3,4-dihydroisoquinolin-2(1H)-yl)methanone]: the EC50 in the data set on rgRSV224 virus came out at 0.017 µM. In addition, in “in vitro”, the CC50 at 3 days came to 21.2 µM.

`C[C@@H]1c2ccccc2CCN1C(=O)c1cc(C2CC2)n2nc(-c3ccc(N4CCC5(C4)CS(=O)(=O)C5)cc3F)cc2n1` [Compound 6]: in the data set on rgRSV224 virus, the EC50 came to 0.098 µM. In the data set “in vitro”, the CC50 at 3 days was over 100 µM.

For the compound `C[C@@H]1c2ccccc2CCN1C(=O)c1cc(C2CC2)n2nc(-c3ccc(N4CC[C@H](N)C4)cc3F)cc2n1` [Compound 93, (2-(4-((S)-3-aminopyrrolidin-1-yl)-2-fluorophenyl)-7-cyclopropylpyrazolo[1,5-a]pyrimidin-5-yl)((R)-1-methyl-3,4-dihydroisoquinolin-2(1H)-yl)methanone], the EC50 with rgRSV224 virus turned out to be 0.039 µM. Also, the midpoint of cytotoxicity in “in vitro”, the CC50 at 3 days, lay at 13.4 µM.

In the case of `C[C@@H]1c2ccccc2CCN1C(=O)c1cc(C2CC2)n2nc(-c3ccc(N4CC[C@H](C(=O)NS(C)(=O)=O)C4)cc3F)cc2n1` [Compound 40, (3S)-1-(4-{7-Cyclopropyl-5-[(1R)-1-methyl-1,2,3,4-tetrahydroisoquinoline-2-carbonyl]-pyrazolo[1,5-a]pyrimidin-2-yl}-3-fluorophenyl)-N-methanesulfonylpyrrolidine-3-carboxamide], the EC50 in the data set with rgRSV224 virus came to 0.061 µM. Moreover, the midpoint of cytotoxicity in “in vitro”, the CC50 at 3 days, lay at 52.3 µM.

Consider `C[C@@H]1c2ccccc2CCN1C(=O)c1cc(C2CC2)n2nc(-c3ccc(N4CC[C@@H](O)C4)cc3F)cc2n1` [Compound 13, (3R)-1-(4-{7-Cyclopropyl-5-[(1R)-1-methyl-1,2,3,4-tetrahydroisoquinoline-2-carbonyl]pyrazolo[1,5-a]pyrimidin-2-yl}-3-fluorophenyl)pyrrolidin-3-ol], for which the EC50 with rgRSV224 virus was found to be 0.058 µM. This compound also came in with a CC50 at 3 days in the data set “in vitro” of 80.5 µM.

On to `C[C@@H]1c2ccccc2CCN1C(=O)c1cc(C2CC2)n2nc(-c3ncc(N4CC[C@H](C(N)=O)C4)nc3F)cc2n1` [Compound 88, (3S)-1-(5-{7-Cyclopropyl-5-[(1R)-1-methyl-1,2,3,4-tetrahydroisoquinoline-2-carbonyl]-pyrazolo[1,5-a]pyrimidin-2-yl}-6-fluoropyrazin-2-yl)pyrrolidine-3-carboxamide], for which the EC50 in the data set with rgRSV224 virus turned out to be 0.017 µM. In “in vitro”, this compound registered a CC50 at 3 days of 47.6 µM.

Regarding `C[C@@H]1c2ccccc2CCN1C(=O)c1cc(-c2ccc(C(F)(F)F)cc2)n2nc(-c3ccc(N4CC[C@H](C(N)=O)C4)cc3F)cc2n1` [Compound 61, (3S)-1-(3-Fluoro-4-{5-[(1R)-1-methyl-1,2,3,4-tetrahydroisoquinoline-2-carbonyl]-7-[4-(trifluoromethyl)phenyl]pyrazolo[1,5-a]pyrimidin-2-yl}phenyl)pyrrolidine-3-carboxamide], the EC50 in the data set on rgRSV224 virus is 0.193 µM. Moreover, the CC50 at 3 days in “in vitro” was over 100 µM.

Consider `C[C@@H]1c2ccccc2CCN1C(=O)c1cc(-c2ccncc2)n2nc(-c3ccc(N4CC[C@H](C(N)=O)C4)cc3F)cc2n1` [Compound 63, (3S)-1-(3-Fluoro-4-{5-[(1R)-1-methyl-1,2,3,4-tetrahydroisoquinoline-2-carbonyl]-7-(pyridin-4-yl)pyrazolo[1,5-a]pyrimidin-2-yl}phenyl)pyrrolidine-3-carboxamide], for which the EC50 with rgRSV224 virus is 0.011 µM. This compound also showed a CC50 at 3 days in “in vitro” of 27.2 µM.

Take `Cc1cc(N2CC[C@H](C(N)=O)C2)cc(F)c1-c1cc2nc(C(=O)N3CCc4ccccc4[C@H]3C)cc(C3CC3)n2n1` [Compound 89, (3S)-1-(4-{7-Cyclopropyl-5-[(1R)-1-methyl-1,2,3,4-tetrahydroisoquinoline-2-carbonyl]pyrazolo[1,5-a]pyrimidin-2-yl}-3-fluoro-5-methylphenyl)pyrrolidine-3-carboxamide]: in the data set with rgRSV224 virus, the EC50 worked out at 0.165 µM. In “in vitro”, this compound gave a CC50 at 3 days of 33.4 µM.

For the compound `C[C@@H]1c2ccccc2CCN1C(=O)c1cc(C2CC2)n2nc(-c3ccc(N4CC[C@@H](c5nnn[nH]5)C4)cc3F)cc2n1` [Compound 2, (1R)-2-(7-Cyclopropyl-2-{2-fluoro-4-[(3R)-3-(1H-1,2,3,4-tetrazol-5-yl)pyrrolidin-1-yl]phenyl}pyrazolo[1,5-a]pyrimidine-5-carbonyl)-1-methyl-1,2,3,4-tetrahydroisoquinoline], the EC50 with rgRSV224 virus was found to be 0.056 µM. Also, the CC50 at 3 days in “in vitro” turned out to be 38.7 µM.

As to `CNC(=O)[C@H]1CCN(c2ccc(-c3cc4nc(C(=O)N5CCc6ccccc6[C@H]5C)cc(C5CC5)n4n3)c(F)n2)C1` [Compound 50, (3S)-1-(5-{7-Cyclopropyl-5-[(1R)-1-methyl-1,2,3,4-tetrahydroisoquinoline-2-carbonyl]-pyrazolo[1,5-a]pyrimidin-2-yl}-6-fluoropyridin-2-yl)-N-methylpyrrolidine-3-carboxamide], the EC50 in the data set with rgRSV224 virus is 0.031 µM. The compound also displayed a CC50 at 3 days in the data set “in vitro” of 35.1 µM.

As for `C[C@@H]1c2ccccc2CCN1C(=O)c1cc(C2CC2)n2nc(-c3ccc(N4CC[C@H](S(C)(=O)=O)C4)cc3F)cc2n1` [Compound 18, (1R)-2-(7-Cyclopropyl-2-{2-fluoro-4-[(3S)-3-methanesulfonylpyrrolidin-1-yl]phenyl}-pyrazolo[1,5-a]pyrimidine-5-carbonyl)-1-methyl-1,2,3,4-tetrahydroisoquinoline], the EC50 in the data set on rgRSV224 virus turned out to be 0.044 µM. Also, the CC50 at 3 days in “in vitro” is over 100 µM.

Take `CC(=O)NS(=O)(=O)C1CCN(c2ccc(-c3cc4nc(C(=O)N5CCc6ccccc6[C@H]5C)cc(C5CC5)n4n3)c(F)c2)C1` (stereo partly drawn) [Compound 20, N-{[1-(4-{7-Cyclopropyl-5-[(1R)-1-methyl-1,2,3,4-tetrahydroisoquinoline-2-carbonyl]-pyrazolo[1,5-a]pyrimidin-2-yl}-3-fluorophenyl)pyrrolidin-3-yl]sulfonyl}acetamide]: the EC50 in the data set on rgRSV224 virus was determined as 0.052 µM. This compound also came in with a CC50 at 3 days in “in vitro” of 55.9 µM.

Consider `C[C@@H]1c2ccccc2CCN1C(=O)c1cc(C2CC2)n2nc(-c3ccc(N4CCC(S(=O)(=O)N(C)C)C4)cc3F)cc2n1` (stereo partly drawn) [Compound 22, 1-(4-{7-Cyclopropyl-5-[(1R)-1-methyl-1,2,3,4-tetrahydroisoquinoline-2-carbonyl]-pyrazolo[1,5-a]pyrimidin-2-yl}-3-fluorophenyl)-N,N-dimethylpyrrolidine-3-sulfonamide], for which the EC50 in the data set with rgRSV224 virus is 0.145 µM. In the data set “in vitro”, the CC50 at 3 days was over 100 µM.

As to `CC(=O)N[C@H]1CCN(c2ccc(-c3cc4nc(C(=O)N5CCc6ccccc6[C@H]5C)cc(C5CC5)n4n3)c(F)c2)C1` [Compound 8, N-[(3S)-1-(4-{7-Cyclopropyl-5-[(1R)-1-methyl-1,2,3,4-tetrahydroisoquinoline-2-carbonyl]pyrazolo[1,5-a]pyrimidin-2-yl}-3-fluorophenyl)pyrrolidin-3-yl]acetamide], in the data set with rgRSV224 virus, the EC50 is 0.041 µM. Also, the CC50 at 3 days in the data set “in vitro” was 51.5 µM.

`C[C@@H]1c2ccccc2CCN1C(=O)c1cc(-c2cncnc2)n2nc(-c3ccc(N4CC[C@H](C(N)=O)C4)cc3F)cc2n1` [Compound 64, (3S)-1-(3-Fluoro-4-{5-[(1R)-1-methyl-1,2,3,4-tetrahydroisoquinoline-2-carbonyl]-7-(pyrimidin-5-yl)pyrazolo[1,5-a]pyrimidin-2-yl}phenyl)pyrrolidine-3-carboxamide]: the EC50 in the data set on rgRSV224 virus was found to be 0.029 µM. For the same compound, the CC50 at 3 days in “in vitro” is 8.9 µM.

Take `COC(=O)N[C@@H]1CCN(c2ccc(-c3cc4nc(C(=O)N5CCc6ccccc6[C@H]5C)cc(C5CC5)n4n3)c(F)c2)C1` [Compound 9, Methyl N-[(3R)-1-[4-{7-cyclopropyl-5-[(1R)-1-methyl-1,2,3,4-tetrahydroisoquinoline-2-carbonyl]pyrazolo[1,5-a]pyrimidin-2-yl}-3-fluorophenyl)pyrrolidin-3-yl]carbamate]: in the data set on rgRSV224 virus, the EC50 amounted to 0.108 µM. In addition, the CC50 at 3 days in the data set “in vitro” is over 100 µM.

For `C[C@@H]1c2ccccc2CCN1C(=O)c1cc(-c2ccccc2)n2nc(-c3ccc(N4CC[C@H](C(N)=O)C4)cc3F)cc2n1` [Compound 56, (3S)-1-(3-Fluoro-4-{5-[(1R)-1-methyl-1,2,3,4-tetrahydroisoquinoline-2-carbonyl]-7-phenylpyrazolo[1,5-a]pyrimidin-2-yl}phenyl)pyrrolidine-3-carboxamide], the EC50 with rgRSV224 virus is 0.032 µM. In “in vitro”, the CC50 at 3 days came to 58.9 µM.

As to `C[C@@H]1c2ccccc2CCN1C(=O)c1cc(C2CC2)n2nc(-c3ccc(N4CCC(C(N)=O)CC4)cc3F)cc2n1` [Compound 68, 1-(4-{7-Cyclopropyl-5-[(1R)-1-methyl-1,2,3,4-tetrahydroisoquinoline-2-carbonyl]-pyrazolo[1,5-a]pyrimidin-2-yl}-3-fluorophenyl)piperidine-4-carboxamide], in the data set with rgRSV224 virus, the EC50 was determined as 0.058 µM. This compound also gave a CC50 at 3 days in “in vitro” of 26.6 µM.

Consider `C[C@@H]1c2ccccc2CCN1C(=O)c1cc(C2CC2)n2nc(-c3ccc(N4CC[C@H](c5noc(=O)[nH]5)C4)cc3F)cc2n1` [Compound 4, 3-[(3S)-1-(4-{7-Cyclopropyl-5-[(1R)-1-methyl-1,2,3,4-tetrahydroisoquinoline-2-carbonyl]pyrazolo[1,5-a]pyrimidin-2-yl}-3-fluorophenyl)pyrrolidin-3-yl]-4,5-dihydro-1,2,4-oxadiazol-5-one], for which the EC50 in the data set on rgRSV224 virus came out at 0.049 µM. The compound further displayed a CC50 at 3 days in “in vitro” of 23 µM.

In the case of `C[C@@H]1c2ccccc2CCN1C(=O)c1cc(-c2ccc(Cl)cc2)n2nc(-c3ccc(N4CC[C@H](C(N)=O)C4)cc3F)cc2n1` [Compound 59, (3S)-1-{4-[7-(4-Chlorophenyl)-5-[(1R)-1-methyl-1,2,3,4-tetrahydroisoquinoline-2-carbonyl]pyrazolo[1,5-a]pyrimidin-2-yl]-3-fluorophenyl}pyrrolidine-3-carboxamide], the EC50 with rgRSV224 virus was found to be 0.047 µM.
